From paper PMC6277767, “Broad and Region-Specific Impacts of the Synthetic Cannabinoid CP 55,940 in Adolescent and Adult Female Mouse Brains” (Frontiers in Molecular Neuroscience, 2018)

Experiment: CP 55,940 levels in eight brain regions 2 h after single i.p. 3 mg/kg injection (HPLC/MS/MS)
Format: in vivo, mouse
Conditions: for CP 55,940 Direction (relative to Veh) / CP 55,940 Magnitude (x Veh level): p .000
Protocol: The Bloomington Institutional Animal Care and Use Committee of Indiana University reviewed and approved the animal procedures. Female mice from the CD1 strain were utilized to match our study examining THC’s effects on the brain lipidome ([Leishman et al., 2018]). Mice were given a single i.p. injection of either 3 mg/kg CP or 1:1:18 cremophor:ethanol:saline vehicle (please refer to the section “3 mg/kg CP Is Relevant for Synthetic Cannabinoid Abuse and Has Stronger Effects on the Female Mouse Brain Lipidome During Adolescence” for a justification of dose and use of female mice). Three different age groups were given injections: PND 35 and PND 50 adolescents, and adult mice (PND 113). At least eight mice in each age group received CP and at least eight received vehicle. Matching the THC study time course ([Leishman et al., 2018]), mice were sacrificed via rapid decapitation 2 h after injection. Brains were immediately removed and flash-frozen in liquid nitrogen, and then stored at -80°C until dissections were performed. Brains were dissected on an ice-cold dissection plate into the following regions: STR, HIPP, CER, THAL, CTX, HYP, MID, and STEM. These abbreviations for these brain areas will be used exclusively when discussing the results generated by these specific dissections. Each dissected area was immediately placed in liquid nitrogen and then stored at -80°C until used for lipid extraction.
Tissue extracts were performed as previously described ([Bradshaw et al., 2006]; [Stuart et al., 2013]; [Raboune et al., 2014]; [Leishman et al., 2016a],[b], [2017], [2018]). First, samples were shock frozen in liquid nitrogen, weighed, and transferred to a centrifuge tube. The mass of the largest sample was multiplied by 50 to determine how many milliliters of HPLC-grade methanol (Fisher, Fair Lawn, NJ, United States) to add. Then, samples were spiked with 500 pmol deuterium-labeled NAGly (d8NAGly; Cayman Chemical, Ann Arbor, MI, United States). Samples were placed on ice in darkness for 2 h then individually homogenized and centrifuged at 19,000 × g for 20 min at 20°C. Supernatants were diluted with HPLC water (purified in house) to make a solution of 75% water, 25% supernatant. Lipids were partially purified on C18 solid phase extraction columns (Agilent, Palo Alto, CA, United States). A series of four elutions with 1.5 mL of 60%, 75%, 85%, and 100% methanol were collected ([Stuart et al., 2013]; [Leishman et al., 2016a],[b], [2018]).
As previously described ([Bradshaw et al., 2006]; [Tan et al., 2006]; [Smoum et al., 2010]; [Stuart et al., 2013]; [Tortoriello et al., 2013]; [Raboune et al., 2014]; [Leishman et al., 2016a],[b], [2017], [2018]), samples were analyzed using an Applied Biosystems API 3000 triple quadrupole mass spectrometer with electrospray ionization (Foster City, CA, United States). Using an Agilent XDB-C18 reversed phase analytical column and optimized mobile phase gradients, 20 μL from each elution were chromatographed. Two Shimadzu 10ADvp pumps (Columbia, MD, United States) provided the pressure for gradient elution. Mobile phase A: 20% methanol, 80% water (v/v) and 1 mM ammonium acetate (Sigma, St. Louis, MO, United States). Mobile phase B: 100% methanol, 1 mM ammonium acetate. Every method run began with 0% mobile phase B, reached 100% mobile phase B flowing at 0.2 mL/min, and gradually returned to 0% mobile phase B.
This screening library will be referred to as the lipidome when discussing data from this study. HPLC/MS/MS data were analyzed using Analyst software (Applied Biosystems) ([Bradshaw et al., 2006]; [Tan et al., 2006]; [Stuart et al., 2013]; [Tortoriello et al., 2013]; [Raboune et al., 2014]; [Leishman et al., 2016a],[b], [2017], [2018]). Chromatograms (Supplementary Figure 3) were generated by determining the retention time of analytes from the analytical column with a [M-1] or [M+1] parent peak and a fragmentation peak corresponding to the programmed values. […]

[1] = adult brainstem, 3mg/kg CP 55,940
[2] = adult cortex, 3 mg/kg CP 55,940
[3] = adult hypothalamus, 3mg/kg CP 55,940
[4] = adult midbrain, 3mg/kg CP 55,940
[5] = brainstem, PND35, 3 mg/kg CP 55,940 vs Veh

## CCCCCCC(C)(C)c1ccc([C@@H]2C[C@H](O)CC[C@H]2CCCO)c(O)c1 [CP 55,940]
PND 35
  brain area with highest levels of CP: CTX
PND 35, CER, 2 hours after acute 3 mg/kg injection
  CP 55,940 level, Mean: 7.2155E-011
PND 35, CTX, 2 hours after acute 3 mg/kg injection
  CP 55,940 level, Mean: 1.1107E-010
PND 35, HIPP, 2 hours after acute 3 mg/kg injection
  CP 55,940 level, Mean: 9.6303E-011
PND 35, HYP, 2 hours after acute 3 mg/kg injection
  CP 55,940 level, Mean: 5.3113E-011
PND 35, MID, 2 hours after acute 3 mg/kg injection
  CP 55,940 level, Mean: 7.9142E-011
PND 35, STEM, 2 hours after acute 3 mg/kg injection
  CP 55,940 level, Mean: 7.0414E-011
PND 35, STR, 2 hours after acute 3 mg/kg injection
  CP 55,940 level, Mean: 5.7413E-011
PND 35, THAL, 2 hours after acute 3 mg/kg injection
  CP 55,940 level, Mean: 8.8715E-011
PND 35, Total (all brain areas), 2 hours after acute 3 mg/kg injection
  CP 55,940 level, Mean: 7.8540E-011
PND 35 hypothalamus
  CP 55,940 level, Direction (relative to Veh): ↑
  CP 55,940 level, Magnitude (x Veh level): infinite
PND 35 midbrain, 3mg/kg
  CP 55,940 level: Magnitude (x Veh level): infinite
PND 35 midbrain, 3mg/kg, one-way ANOVA
  CP 55,940 level: Direction (rel to Veh): ↑
PND 35 striatum, 3 mg/kg i.p., 2 h
  CP 55,940 mean level: 5.74E-11 moles per gram
PND 50
  brain area with highest levels of CP: HIPP
PND 50, CER, 2 hours after acute 3 mg/kg injection
  CP 55,940 level, Mean: 7.5674E-011
PND 50, CTX, 2 hours after acute 3 mg/kg injection
  CP 55,940 level, Mean: 8.6116E-011
PND 50, HIPP, 2 hours after acute 3 mg/kg injection
  CP 55,940 level, Mean: 1.2297E-010
PND 50, HYP, 2 hours after acute 3 mg/kg injection
  CP 55,940 level, Mean: 4.3769E-011
PND 50, MID, 2 hours after acute 3 mg/kg injection
  CP 55,940 level, Mean: 1.2091E-010
PND 50, STEM, 2 hours after acute 3 mg/kg injection
  CP 55,940 level, Mean: 8.3747E-011
PND 50, STR, 2 hours after acute 3 mg/kg injection
  CP 55,940 level, Mean: 5.8704E-011
PND 50, THAL, 2 hours after acute 3 mg/kg injection
  CP 55,940 level, Mean: 9.9312E-011
PND 50, Total (all brain areas), 2 hours after acute 3 mg/kg injection
  CP 55,940 level, Mean: 8.6438E-011
adult
  brain area with highest levels of CP: CER
[1]
  CP 55,940 level, Direction (relative to Veh): ↑
  CP 55,940 level, Magnitude (x Veh level): infinite
Adult cortex, 3mg/kg CP 55,940
  CP 55,940 level, Mean: 1.85E-10
[2]
  CP 55,940 Direction (relative to Veh): ↑
  CP 55,940 Magnitude (x Veh level): infinite
Adult female mice, brainstem, 3mg/kg CP 55,940
  CP 55,940 level, Mean: 1.52E-10
Adult hypothalamus, 3 mg/kg CP 55,940
  CP 55,940 level, Mean: 1.17E-10
[3]
  CP 55,940 Direction (relative to Veh): ↑
  CP 55,940 Magnitude (x Veh level): infinite
[4]
  CP 55,940 level, Mean: 2.2E-10
  CP 55,940 Direction (relative to Veh): ↑
  CP 55,940 Magnitude (x Veh level): infinite
adult, CER, 2 hours after acute 3 mg/kg injection
  CP 55,940 level, Mean: 2.8002E-010
adult, CTX, 2 hours after acute 3 mg/kg injection
  CP 55,940 level, Mean: 1.8513E-010
adult, HIPP, 2 hours after acute 3 mg/kg injection
  CP 55,940 level, Mean: 2.6840E-010
adult, HYP, 2 hours after acute 3 mg/kg injection
  CP 55,940 level, Mean: 1.1726E-010
adult, MID, 2 hours after acute 3 mg/kg injection
  CP 55,940 level, Mean: 2.2043E-010
adult, STEM, 2 hours after acute 3 mg/kg injection
  CP 55,940 level, Mean: 1.5203E-010
adult, STR, 2 hours after acute 3 mg/kg injection
  CP 55,940 level, Mean: 2.0821E-010
adult, THAL, 2 hours after acute 3 mg/kg injection
  CP 55,940 level, Mean: 2.0002E-010
adult, Total (all brain areas), 2 hours after acute 3 mg/kg injection
  CP 55,940 level, Mean: 2.0394E-010
All three age groups
  brain area with lowest levels of CP: HYP
  variation of CP levels among the eight brain regions: twofold to threefold
[5]
  CP 55,940 level, Direction (relative to Veh): ↑
  CP 55,940 level, Magnitude (x Veh level): infinite
brainstem, PND35 female mice, 3mg/kg CP 55,940, mean
  CP 55,940 level: 7.04E-11
